# Laboratory results taken from patent US5710244A, “Derivatized calcitonins” (priority 1993, dated 1998).
# Assays:
# [1] = target: T1, recombinant human calcitonin receptor (Homo sapiens, UniProt P30988); assay: CRE-linked luciferase (cyclic AMP) induction in BHK/KZ10-20-48 cells expressing recombinant human calcitonin receptor; format: cell-based; details: for % SCT EC50, Human CT receptor: EC50 as % of salmon calcitonin (SCT) EC50, CRE-luciferase, BHK/KZ10-20-48 cells, 4 h induction; for activity / potency compared with human calcitonin: text summary of the Table (hamster and human CT receptor)
# T1 construct: expressed in transfected cells; host or cells: BHK/KZ10-20-48 (BHK cells carrying a CRE-luciferase reporter) transfected with pHOLLEX (ATCC 69067)
# T1 sequence (P30988 25-474): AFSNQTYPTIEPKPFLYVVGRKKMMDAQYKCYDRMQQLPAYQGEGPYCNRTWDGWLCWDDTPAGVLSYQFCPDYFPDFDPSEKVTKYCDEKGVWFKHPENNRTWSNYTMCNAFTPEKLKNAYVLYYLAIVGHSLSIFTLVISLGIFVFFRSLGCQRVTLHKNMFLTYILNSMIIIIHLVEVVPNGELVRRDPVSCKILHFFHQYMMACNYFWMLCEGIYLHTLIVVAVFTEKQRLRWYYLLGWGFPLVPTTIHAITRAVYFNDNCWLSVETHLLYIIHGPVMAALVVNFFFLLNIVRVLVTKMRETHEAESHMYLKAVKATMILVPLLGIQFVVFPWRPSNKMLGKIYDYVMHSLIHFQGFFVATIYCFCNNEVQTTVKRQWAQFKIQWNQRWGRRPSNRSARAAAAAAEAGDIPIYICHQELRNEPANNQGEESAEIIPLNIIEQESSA
# Method: BHK/KZ10-20-48 is a BHK cell line transfected with a plasmid containing a luciferase gene whose expression is dependent upon a cyclic AMP response element (CRE), which induces expression of downstream coding sequences in the presence of cyclic AMP. […] The vector without the calcitonin receptor was used to transfect the cell line BHK/KZ10-20-48 for a negative control. The transfectants were grown in a selective growth medium (Dulbecco's Modified Eagle Medium (DMEM) with 5% serum) containing both 500 μg/ml G418-neomycin and 250 nM methotrexate.
# Cells expressing the calcitonin receptor were assayed in triplicate for the induction of the CRE-linked luciferase response to salmon calcitonin (SCT) and derivatized calcitonins at concentrations ranging from 10^-13 M to 10^-6 M. MICROLITE flat bottom tissue culture plates (Baxter Scientific Products, Chicago, Ill.) were set up such that each well contained 2×10^4 cells in 100 μl of selection media, and the cells were grown overnight. […] Induction was initiated by removing old medium from the wells and adding 100 μl of fresh growth medium and 100 μl of either 2X solution in triplicate sample wells. Uninduced luciferase levels were determined in triplicate wells to which 100 μl of DMEM containing 10% fetal calf serum was added. The plates were incubated for four hours at 37° C., 5% CO2 to allow induction of luciferase. Following induction, the media were removed, and the wells were washed once with 200 μl/well PBS. After the wash, 20 μl of a 1:5 dilution (in sterile water) of the stock Cell Culture Lysis Reagent (Luciferase Assay System, Promega Corp., Madison, Wis.) was added to each well, and the plates were incubated for 15 minutes at room temperature. The plates were transferred to a Labsystems Luminoskan microtiter luminometer (Labsystems Inc., Morton Grove, Ill.) which added 40 μl of Luciferase Assay Substrate (Luciferase Assay System, Promega), mixed the reaction for three seconds and integrated the luciferase signal for two seconds per well. The fold induction of luciferase for each compound was calculated as follows:
# [2] = tested on: endogenous hamster calcitonin receptor; assay: CRE-linked luciferase (cyclic AMP) induction in BHK cells expressing endogenous hamster calcitonin receptor; format: cell-based; details: EC50 as % of salmon calcitonin (SCT) EC50; CRE-luciferase, BHK cells, 4 h induction
# Method: A BHK cell line expressing the endogenous hamster calcitonin receptor was transfected with plasmid KZ10-20-48 to provide the CRE-inducible luciferase receptor described above. The transfected cells were cultured in selective growth medium containing both 500 μg/mL G418-neomycin and 250 nM methotrexate.
# Cells expressing the calcitonin receptor were assayed in triplicate for the induction of the CRE-linked luciferase response to salmon calcitonin (SCT) and derivatized calcitonins at concentrations ranging from 10^-13 M to 10^-6 M. MICROLITE flat bottom tissue culture plates (Baxter Scientific Products, Chicago, Ill.) were set up such that each well contained 2×10^4 cells in 100 μl of selection media, and the cells were grown overnight. SCT and GF43 were prepared at 2X the final assay concentration to give 10^-13 to 10^-6 M in growth medium. Induction was initiated by removing old medium from the wells and adding 100 μl of fresh growth medium and 100 μl of either 2X solution in triplicate sample wells. Uninduced luciferase levels were determined in triplicate wells to which 100 μl of DMEM containing 10% fetal calf serum was added. The plates were incubated for four hours at 37° C., 5% CO2 to allow induction of luciferase. Following induction, the media were removed, and the wells were washed once with 200 μl/well PBS. After the wash, 20 μl of a 1:5 dilution (in sterile water) of the stock Cell Culture Lysis Reagent (Luciferase Assay System, Promega Corp., Madison, Wis.) was added to each well, and the plates were incubated for 15 minutes at room temperature. The plates were transferred to a Labsystems Luminoskan microtiter luminometer (Labsystems Inc., Morton Grove, Ill.) which added 40 μl of Luciferase Assay Substrate (Luciferase Assay System, Promega), mixed the reaction for three seconds and integrated the luciferase signal for two seconds per well. The fold induction of luciferase for each compound was calculated as follows:
# Fold induction=Induced signal-Uninduced signal Uninduced signal
# [3] = tested on: serum calcium in mice; assay: In vivo effect on serum calcium levels in mice; details: Swiss-Webster male mice, single subcutaneous injection, 100 ng/ml, 1 μg/ml, 10 μg/ml; 0, 1 and 4 hours; FIGS. 1 and 2
# Method: The biological activity of bipyridine-calcitonin in vivo was measured as the ability of BP4,4 -CT to lower serum calcium in mice as compared to the action of salmon calcitonin. Six-week old Swiss-Webster male mice (12 to 18 grams) were given single, subcutaneous injections of BP4,4 -CT, salmon calcitonin or vehicle. Blood samples for serum calcium measurements were collected from orbital sinus punctures at timed intervals of 0, 1 and 4 hours after injection. Serum calcium was analyzed using a Dacos Excel Analyzer (Coulter Electronics Company, Hialeah, Fla.). The compounds were given at the following doses with eight mice randomly assigned to each of the following groups: […]
"% SCT EC50, Human CT receptor [1] [%]","% SCT EC50, Hamster CT receptor [2] [%]",activity / potency compared with human calcitonin [1],Molecule,decrease of serum calcium levels [3]
140,,,CC(C)C[C@H](NC(=O)[C@H](CCCCN)NC(=O)CNC(=O)[C@H](CC(C)C)NC(=O)[C@@H](NC(=O)[C@@H]1CSSC[C@H](NC(=O)c2ccccn2)C(=O)N[C@@H](CO)C(=O)N[C@@H](CC(N)=O)C(=O)N[C@@H](CC(C)C)C(=O)N[C@@H](CO)C(=O)N[C@@H]([C@@H](C)O)C(=O)N1)C(C)C)C(=O)N[C@@H](CO)C(=O)N[C@@H](CCC(N)=O)C(=O)N[C@@H](CCC(=O)O)C(=O)N[C@@H](CC(C)C)C(=O)N[C@@H](Cc1c[nH]cn1)C(=O)N[C@@H](CCCCN)C(=O)N[C@@H](CC(C)C)C(=O)N[C@@H](CCC(N)=O)C(=O)N[C@H](C(=O)N[C@@H](Cc1ccc(O)cc1)C(=O)N1CCC[C@H]1C(=O)N[C@@H](CCCNC(=N)N)C(=O)N[C@H](C(=O)N[C@@H](CC(N)=O)C(=O)N[C@H](C(=O)NCC(=O)N[C@@H](CO)C(=O)NCC(=O)N[C@H](C(=O)N1CCC[C@H]1C(N)=O)[C@@H](C)O)[C@@H](C)O)[C@@H](C)O)[C@@H](C)O [ZP-6],
112,,,CC(C)C[C@H](NC(=O)[C@H](CCCCN)NC(=O)CNC(=O)[C@H](CC(C)C)NC(=O)[C@@H](NC(=O)[C@@H]1CSSC[C@H](NC(=O)c2cccnc2)C(=O)N[C@@H](CO)C(=O)N[C@@H](CC(N)=O)C(=O)N[C@@H](CC(C)C)C(=O)N[C@@H](CO)C(=O)N[C@@H]([C@@H](C)O)C(=O)N1)C(C)C)C(=O)N[C@@H](CO)C(=O)N[C@@H](CCC(N)=O)C(=O)N[C@@H](CCC(=O)O)C(=O)N[C@@H](CC(C)C)C(=O)N[C@@H](Cc1c[nH]cn1)C(=O)N[C@@H](CCCCN)C(=O)N[C@@H](CC(C)C)C(=O)N[C@@H](CCC(N)=O)C(=O)N[C@H](C(=O)N[C@@H](Cc1ccc(O)cc1)C(=O)N1CCC[C@H]1C(=O)N[C@@H](CCCNC(=N)N)C(=O)N[C@H](C(=O)N[C@@H](CC(N)=O)C(=O)N[C@H](C(=O)NCC(=O)N[C@@H](CO)C(=O)NCC(=O)N[C@H](C(=O)N1CCC[C@H]1C(N)=O)[C@@H](C)O)[C@@H](C)O)[C@@H](C)O)[C@@H](C)O [ZP-5],
,,,"CC(C)C[C@H](NC(=O)[C@H](CCCCN)NC(=O)CNC(=O)[C@H](CC(C)C)NC(=O)[C@@H](NC(=O)[C@@H]1CSSC[C@H](N)C(=O)N[C@@H](CO)C(=O)N[C@@H](CC(N)=O)C(=O)N[C@@H](CC(C)C)C(=O)N[C@@H](CO)C(=O)N[C@@H]([C@@H](C)O)C(=O)N1)C(C)C)C(=O)N[C@@H](CO)C(=O)N[C@@H](CCC(N)=O)C(=O)N[C@@H](CCC(=O)O)C(=O)N[C@@H](CC(C)C)C(=O)N[C@@H](Cc1c[nH]cn1)C(=O)N[C@@H](CCCCN)C(=O)N[C@@H](CC(C)C)C(=O)N[C@@H](CCC(N)=O)C(=O)N[C@H](C(=O)N[C@@H](Cc1ccc(O)cc1)C(=O)N1CCC[C@H]1C(=O)N[C@@H](CCCNC(=N)N)C(=O)N[C@H](C(=O)N[C@@H](CC(N)=O)C(=O)N[C@H](C(=O)NCC(=O)N[C@@H](CO)C(=O)NCC(=O)N[C@H](C(=O)N1CCC[C@H]1C(N)=O)[C@@H](C)O)[C@@H](C)O)[C@@H](C)O)[C@@H](C)O [salmon calcitonin, reference compound]",equally decreased serum calcium levels in a dose-dependent manner
,147,greater activity than human calcitonin,ZP-9: DL-pipecolinic acid modified salmon calcitonin,
,106,greater activity than human calcitonin,ZP-8: isonipecotic acid modified salmon calcitonin,

Molecule,"% SCT EC50, Human CT receptor [1] [%]","% SCT EC50, Hamster CT receptor [2] [%]",activity / potency compared with human calcitonin [1],decrease of serum calcium levels [3]
"ZP-1: salmon calcitonin N-terminally modified with 2,2'-bipyridine-4,4'-dicarboxylic acid",,73,,equally decreased serum calcium levels in a dose-dependent manner
